# According to patent US8476197B2, “Aminopropenoates as fungicides” (priority 2009, dated 2013):
# Marks after values point to notes of the source that are not given here.
# Settings: pH 2.7
row,SMILES,Log P
1,CCOC(=O)C(C#N)=C(NC(C)c1nccs1)c1c(C(F)F)nn(C)c1F (mixture of isomers) [Compound 309],2.73^[a]
2,CCOC(=O)C(C#N)=C(NC(C)c1ccc(C)cc1)c1sccc1C(F)(F)F (mixture of isomers) [Compound 439],4.54^[a]
3,COC(=O)C(C#N)=C(NC(C)CCc1ccccc1)c1sc(C)nc1C(F)(F)F (mixture of isomers) [Compound 441],4.01^[a]
4,COC(=O)C(C#N)=C(NC(C)c1ccc(F)cc1)c1sc(C)nc1C(F)(F)F (mixture of isomers) [Compound 442],3.64^[a]
5,COC(=O)C(C#N)=C(NC(C)c1ccc(C)cc1)c1sc(C)nc1C(F)(F)F (mixture of isomers) [Compound 443],4.01^[a]
6,CCOC(=O)C(C#N)=C(NC(C)CCc1ccccc1)c1sccc1Br (mixture of isomers) [Compound 445],4.51^[a]
7,CCOC(=O)C(C#N)=C(NC(C)c1ccc(F)cc1)c1sccc1Br (mixture of isomers) [Compound 446],4.06^[a]
8,CCOC(=O)C(C#N)=C(NC(C)c1ccc(C)cc1)c1sccc1Br (mixture of isomers) [Compound 447],4.49^[a]
9,CCOC(=O)C(C#N)=C(NC(C)c1ccccc1)c1sccc1Br (mixture of isomers) [Compound 448],4.09^[a]
10,CCOC(=O)C(C#N)=C(NC(C)CCc1ccccc1)c1cn(C)nc1C(F)F (mixture of isomers) [Compound 453],3.62^[a]
11,CCOC(=O)C(C#N)=C(NC(C)c1ccc(F)cc1)c1cn(C)nc1C(F)F (mixture of isomers) [Compound 454],3.21^[a]
12,CCOC(=O)C(C#N)=C(NC(C)c1ccc(C)cc1)c1cn(C)nc1C(F)F (mixture of isomers) [Compound 455],3.51^[a]
13,CCOC(=O)C(C#N)=C(NC(C)c1ccccc1)c1cn(C)nc1C(F)F (mixture of isomers) [Compound 456],3.17^[a]
14,CCOC(=O)C(C#N)=C(NC(C)c1ccc(Cl)cc1)c1cn(C)nc1C(C)F (mixture of isomers) [Compound 520],3.64^[a]

# Other lines, results leading:
row,Log P,SMILES
1,3.09^[a],CCOC(=O)C(C#N)=C(NC(C)c1nccs1)c1c(C(F)(F)F)nn(C)c1F (mixture of isomers) [Compound 308]
2,3.12^[a],CCOC(=O)C(C#N)=C(NC(C)c1ccccn1)c1c(C(F)(F)F)nn(C)c1F (mixture of isomers) [Compound 310]
3,4.14^[a],CCOC(=O)C(C#N)=C(NC(C)c1ccc(F)cc1)c1sccc1C(F)(F)F (mixture of isomers) [Compound 438]
4,4.16^[a],CCOC(=O)C(C#N)=C(NC(C)c1ccccc1)c1sccc1C(F)(F)F (mixture of isomers) [Compound 440]
5,3.62^[a],COC(=O)C(C#N)=C(NC(C)c1ccccc1)c1sc(C)nc1C(F)(F)F (mixture of isomers) [Compound 444]
6,4.36^[a],CCOC(=O)C(C#N)=C(NC(C)CCc1ccccc1)c1sc(C)nc1C(F)(F)F (mixture of isomers) [Compound 449]
7,3.96^[a],CCOC(=O)C(C#N)=C(NC(C)c1ccc(F)cc1)c1sc(C)nc1C(F)(F)F (mixture of isomers) [Compound 450]
8,4.36^[a],CCOC(=O)C(C#N)=C(NC(C)c1ccc(C)cc1)c1sc(C)nc1C(F)(F)F (mixture of isomers) [Compound 451]
9,3.99^[a],CCOC(=O)C(C#N)=C(NC(C)c1ccccc1)c1sc(C)nc1C(F)(F)F (mixture of isomers) [Compound 452]

# Same assay, conditions: pH 7.5
row,Log P,SMILES
1,4.62,CCOC(=O)C(C#N)=C(NC(C)CCc1c(Cl)cccc1Cl)c1cccnc1Cl (mixture of isomers) [Compound 429]
2,3.09,CCOC(=O)C(C#N)=C(NC(C)CSC)c1ccc(C)nc1Cl (mixture of isomers) [Compound 633]

row,SMILES,Log P
1,CCOC(=O)C(C#N)=C(NC(C)C(F)(F)F)c1cccnc1Cl (mixture of isomers) [Compound 806],2.9
